Here are results for 18 compounds from PubChem BioAssay AID330 (DTP/NCI, 2004).

Structures are written as SMILES. Several values for one entry are separate records, joined by “and”; a condition that tells them apart may be missing. Equal values may be shown once. Toxic doses and inconclusive results are not listed. Peptide text beside a SMILES is read from it. * marks the point of attachment. Cbz = O=C(OCc1ccccc1)*

For this assay, the system named is P388 leukemia ip, CD2F1 mice, survival T/C. As to the kind of experiment: NCI In Vivo Anticancer Drug Screen. Data for tumor model P388 Leukemia (intraperitoneal) in CD2F1 (CDF1) mice. The conditions noted are these: endpoint: median survival time, higher = longer survival. In outline: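 Mice carrying the transplanted tumor received test compound or vehicle. Survival was recorded in each group, and the value is the treated-group measurement divided by that of the vehicle-treated control group.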

The mark [1] stands for this setting: dose: 50.0 mg/kg/injection, schedule: Q01DX009 (ip), vehicle: saline with Tween-80.
[2] abbreviates: dose: 100.0 mg/kg/injection, schedule: Q01DX009 (ip), vehicle: saline with Tween-80.
The mark [3] stands for this setting: dose: 200.0 mg/kg/injection, schedule: Q01DX009 (ip), vehicle: saline with Tween-80.
The mark [4] stands for this setting: dose: 25.0 mg/kg/injection, schedule: Q01DX005 (ip), vehicle: Klucel (hydroxypropylcellulose) (HPC).
[5] abbreviates: dose: 50.0 mg/kg/injection, schedule: Q01DX005 (ip), vehicle: Klucel (hydroxypropylcellulose) (HPC).
The mark [6] stands for this setting: dose: 100.0 mg/kg/injection, schedule: Q01DX005 (ip), vehicle: Klucel (hydroxypropylcellulose) (HPC).
The mark [7] stands for this setting: dose: 200.0 mg/kg/injection, schedule: Q01DX005 (ip), vehicle: Klucel (hydroxypropylcellulose) (HPC).
The mark [8] stands for this setting: dose: 25.0 mg/kg/injection, schedule: Q01DX009 (ip), vehicle: saline with Tween-80.
Where [9] appears, read: dose: 400.0 mg/kg/injection, schedule: Q01DX009 (ip), vehicle: saline with Tween-80.

As for `Nc1nc([Se])c2ncn(C3OC(CO)C(O)C3O)c2n1` (stereo not given), the T/C (dose: 4.0 mg/kg/injection, schedule: Q01DX009 (ip), vehicle: saline) was 150 % of control and 157 % of control; the T/C (dose: 6.25 mg/kg/injection, schedule: Q01DX009 (ip), vehicle: saline) was 159 % of control; the T/C (dose: 8.0 mg/kg/injection, schedule: Q01DX009 (ip), vehicle: saline) was 164 % of control and 179 % of control; the T/C (dose: 8.0 mg/kg/injection, schedule: Q01DX009 (ip), vehicle: water) was 157 % of control; the T/C (dose: 12.5 mg/kg/injection, schedule: Q01DX009 (ip), vehicle: saline) was 183 % of control; the T/C (dose: 16.0 mg/kg/injection, schedule: Q01DX009 (ip), vehicle: saline) is 157 % of control and 198 % of control and 202 % of control. Also, the T/C (dose: 16.0 mg/kg/injection, schedule: Q01DX009 (ip), vehicle: water) is 160 % of control and 161 % of control; the T/C (dose: 25.0 mg/kg/injection, schedule: Q01DX009 (ip), vehicle: saline) is 186 % of control; the T/C (dose: 32.0 mg/kg/injection, schedule: Q01DX009 (ip), vehicle: saline) is 121 % of control and 247 % of control and 98 % of control; the T/C (dose: 32.0 mg/kg/injection, schedule: Q01DX009 (ip), vehicle: water) is 190 % of control and 191 % of control; the T/C (dose: 50.0 mg/kg/injection, schedule: Q01DX009 (ip), vehicle: saline) is 96 % of control.

Take `CN(C)c1ccc(/C=C/c2ccnc3ccccc23)cc1Cl`: the T/C (dose: 12.5 mg/kg/injection, schedule: Q04DX003 (ip), vehicle: saline with Tween-80) is 105 % of control; the T/C (dose: 25.0 mg/kg/injection, schedule: Q04DX003 (ip), vehicle: saline with Tween-80) is 96 % of control; the T/C (dose: 50.0 mg/kg/injection, schedule: Q04DX003 (ip), vehicle: saline with Tween-80) is 95 % of control.

In the case of `CCCCCCC(=O)/C=C/c1ccc2c(c1)OCO2`, the T/C under setting [1] is 96 % of control, the T/C under setting [2] is 102 % of control and the T/C under setting [3] was 91 % of control.

`CNC(=O)OCC1=CC(=O)C(OC)=C(OC)C1=O`: the T/C runs as follows: (dose: 7.5 mg/kg/injection, schedule: Q01DX005 (ip), vehicle: saline with Tween-80) 104 % of control; (dose: 15.0 mg/kg/injection, schedule: Q01DX005 (ip), vehicle: saline with Tween-80) 100 % of control; (dose: 30.0 mg/kg/injection, schedule: Q01DX005 (ip), vehicle: saline with Tween-80) 100 % of control.

As to `CC(=O)Nc1ccc(C)c2ccccc12`, the T/C reads like this: (dose: 75.0 mg/kg/injection, schedule: Q04DX003 (ip), vehicle: saline with Tween-80) 100 % of control; (dose: 150.0 mg/kg/injection, schedule: Q04DX003 (ip), vehicle: saline with Tween-80) 104 % of control; (dose: 300.0 mg/kg/injection, schedule: Q04DX003 (ip), vehicle: saline with Tween-80) 108 % of control.

As to `CN(C)C[C@@H]1OCCOCCO[C@@H](CN(C)C)[C@H](CN(C)C)OCCOCCO[C@H]1CN(C)C`, the T/C is, setting by setting: (dose: 50.0 mg/kg/injection, schedule: Q01DX005 (ip), vehicle: saline) 98 % of control; (dose: 100.0 mg/kg/injection, schedule: Q01DX005 (ip), vehicle: saline) 88 % of control; (dose: 200.0 mg/kg/injection, schedule: Q01DX005 (ip), vehicle: saline) 90 % of control.

With `O=C1C=CC(=O)C(Sc2cccc3ccccc23)=C1`, the T/C runs as follows: (dose: 6.25 mg/kg/injection, schedule: Q01DX005 (ip), vehicle: Klucel (hydroxypropylcellulose) (HPC)) 96 % of control; (dose: 12.5 mg/kg/injection, schedule: Q01DX005 (ip), vehicle: Klucel (hydroxypropylcellulose) (HPC)) 102 % of control and 97 % of control; under setting [4], 93 % of control; under setting [5], 98 % of control and 107 % of control; under setting [6], 107 % of control; under setting [7], 104 % of control.

As for `O=C(O)C1CCCCC12OCCO2` (stereo not given), the T/C is, setting by setting: (dose: 100.0 mg/kg/injection, schedule: Q04DX002 (ip), vehicle: saline) 102 % of control; (dose: 200.0 mg/kg/injection, schedule: Q04DX002 (ip), vehicle: saline) 106 % of control; (dose: 400.0 mg/kg/injection, schedule: Q04DX002 (ip), vehicle: saline) 98 % of control.

Consider `O=C(Nc1ccc(C2=NCCN2)cc1)c1cc2cc(C3=NCCN3)ccc2o1`, for which the T/C is, setting by setting: (dose: 12.5 mg/kg/injection, schedule: Q04DX003 (ip), vehicle: suspension in saline) 100 % of control; (dose: 25.0 mg/kg/injection, schedule: Q04DX003 (ip), vehicle: suspension in saline) 102 % of control; (dose: 50.0 mg/kg/injection, schedule: Q04DX003 (ip), vehicle: suspension in saline) 100 % of control.

For `O=C(NC(Cc1cnc[nH]1)C(=O)NC(Cc1ccc(O)cc1)C(=O)O)OCc1ccccc1` (stereo not drawn) (Cbz-His-Tyr-OH; configuration not given here), the T/C runs as follows: under setting [5], 93 % of control; under setting [6], 95 % of control; under setting [7], 92 % of control.

With `CCOC1OCN(c2ccc(Cl)cc2)CC1(C)C` (stereo not given), the T/C by setting is: under setting [8], 111 % of control; under setting [1], 106 % of control and 107 % of control and 93 % of control; under setting [2], 100 % of control and 119 % of control; under setting [3], 101 % of control and 116 % of control; under setting [9], 100 % of control and 110 % of control.

On to `CCOC(=O)C(C(=O)c1ccccc1)C(C)(C)C` (stereo not given), for which the T/C was 103 % of control (dose: 37.5 mg/kg/injection, schedule: Q01DX009 (ip), vehicle: saline with Tween-80); 105 % of control (dose: 75.0 mg/kg/injection, schedule: Q01DX009 (ip), vehicle: saline with Tween-80); 112 % of control (dose: 150.0 mg/kg/injection, schedule: Q01DX009 (ip), vehicle: saline with Tween-80).

As to `COC(=O)C1(C)CCCC2(C)c3cc(OC(C)=O)c(C(C)C)cc3CCC12` (stereo not given), the T/C (dose: 100.0 mg/kg/injection, schedule: Q01DX001 (ip), vehicle: saline) is 100 % of control; the T/C (dose: 200.0 mg/kg/injection, schedule: Q01DX001 (ip), vehicle: saline) was 106 % of control; the T/C (dose: 400.0 mg/kg/injection, schedule: Q01DX001 (ip), vehicle: saline) was 105 % of control.

In the case of `NNC(=O)OC12CC3CC(CC(C3)C1)C2`, the T/C under setting [8] is 110 % of control and the T/C under setting [1] is 110 % of control.

For `Cn1c([N+](=O)[O-])cnc1CSc1ccc(C#N)cc1`, the T/C was 105 % of control under setting [4], 104 % of control under setting [5], 92 % of control under setting [6] and 114 % of control under setting [7].

As for `COC(=O)C(NC(=O)C(NC(=O)c1c2nc3c(C(=O)NC(C(=O)NC(C(=O)OC)C(C)C)C(C)OC(C)=O)ccc(C)c3oc-2c(C)c(=O)c1N)C(C)OC(C)=O)C(C)C` (stereo not given), the T/C reads like this: (dose: 0.05 mg/kg/injection, schedule: Q01DX009 (ip), vehicle: water) 107 % of control; (dose: 0.1 mg/kg/injection, schedule: Q01DX009 (ip), vehicle: water) 107 % of control; (dose: 0.2 mg/kg/injection, schedule: Q01DX009 (ip), vehicle: water) 100 % of control; (dose: 0.4 mg/kg/injection, schedule: Q01DX009 (ip), vehicle: water) 97 % of control; (dose: 0.8 mg/kg/injection, schedule: Q01DX009 (ip), vehicle: water) 100 % of control; (dose: 1.6 mg/kg/injection, schedule: Q01DX009 (ip), vehicle: water) 100 % of control and 88 % of control. Also, the T/C runs as follows: (dose: 3.2 mg/kg/injection, schedule: Q01DX009 (ip), vehicle: water) 97 % of control; (dose: 6.4 mg/kg/injection, schedule: Q01DX009 (ip), vehicle: water) 97 % of control; (dose: 12.8 mg/kg/injection, schedule: Q01DX009 (ip), vehicle: water) 92 % of control.

For `Cn1nnc(-c2ccc([N+](=O)[O-])cc2)n1`, the T/C reads like this: (dose: 100.0 mg/kg/injection, schedule: Q04DX003 (ip), vehicle: Klucel (hydroxypropylcellulose) (HPC)) 105 % of control; (dose: 200.0 mg/kg/injection, schedule: Q04DX003 (ip), vehicle: Klucel (hydroxypropylcellulose) (HPC)) 103 % of control; (dose: 400.0 mg/kg/injection, schedule: Q04DX003 (ip), vehicle: Klucel (hydroxypropylcellulose) (HPC)) 103 % of control.

Regarding `Nc1ccc2[nH]c(=S)[nH]c2c1`, the T/C is, setting by setting: (dose: 10.0 mg/kg/injection, schedule: Q01DX009 (ip), vehicle: saline with Tween-80) 100 % of control; (dose: 20.0 mg/kg/injection, schedule: Q01DX009 (ip), vehicle: saline with Tween-80) 104 % of control; (dose: 40.0 mg/kg/injection, schedule: Q01DX009 (ip), vehicle: saline with Tween-80) 100 % of control; under setting [2], 95 % of control; under setting [9], 95 % of control.
